Data on 37 molecules can be found in patent US20260083851A1 (AVILAR THERAPEUTICS, INC., priority 2022, published 2026).

The target in the test is T1, ASGP receptor (biotinylated ASGPR) (Homo sapiens, UniProt P07306).
T1 construct: biotin (biotinylated)
T1 sequence (P07306 1-291): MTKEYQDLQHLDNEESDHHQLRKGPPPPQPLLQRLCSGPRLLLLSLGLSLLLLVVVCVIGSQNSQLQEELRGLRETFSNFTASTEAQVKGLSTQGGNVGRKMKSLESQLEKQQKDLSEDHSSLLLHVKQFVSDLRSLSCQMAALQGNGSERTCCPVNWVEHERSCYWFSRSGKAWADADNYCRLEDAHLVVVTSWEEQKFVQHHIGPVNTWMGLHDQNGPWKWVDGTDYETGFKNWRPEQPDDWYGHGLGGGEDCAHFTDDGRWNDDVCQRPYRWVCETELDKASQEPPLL
The class given is binding. The following applies: SPR, Biacore 8K, 25° C. On the technique in general: Surface plasmon resonance follows binding to a sensor surface in real time, without labels.

Usually Kd stands for the free concentration of one partner at which half of the binding sites on the other are occupied at equilibrium, for simple one-to-one binding.

Read-outs that look alike come from different tables or passages of the source.

Take `O[C@@H]1[C@H](O)[C@@H](Oc2cccc(C(F)(F)F)n2)CO[C@@H]1COc1ccc(-c2ccccc2)cc1` [A190, (2R,3R,4S,5S)-2-(([1,1′-biphenyl]-4-yloxy)methyl)-5-((6-(trifluoromethyl)pyridin-2-yl)oxy)tetrahydro-2H-pyran-3,4-diol]: the dissociation constant (Kd) (Table 1C, read-out: ASGPR KD) is below 10 µM.

Consider `C[C@H]1O[C@H](C#CCO)[C@H](Oc2cccc(C(F)(F)F)n2)[C@@H](O)[C@H]1O` [A286], for which, where the note is “Table 1C, read-out: ASGPR KD”, the Kd is below 10 µM.

In the case of `CCOC(=O)c1nc(N2C[C@H](Oc3cccc(C(F)(F)F)n3)[C@@H](O)[C@@H](O)C2)no1` [A360], the Kd (Table 1D, read-out: ASGPR KD) is below 10 µM.

For the molecule `O=C(NC[C@H]1OC[C@H](Nc2cncc(C(F)(F)F)n2)[C@@H](O)[C@H]1O)c1cnc2cc[nH]c2n1` [A82, N-(((2R,3R,4R,5S)-3,4-dihydroxy-5-((6-(trifluoromethyl)pyrazin-2-yl)amino)tetrahydro-2H-pyran-2-yl)methyl)-5H-pyrrolo[2,3-b]pyrazine-3-carboxamide], under “Table 1A, read-out: ASGPR KD”, the equilibrium dissociation constant (Kd) was below 10 µM.

Regarding `O[C@@H]1[C@@H](Nc2cncc(C(F)(F)F)n2)[C@H]2OC[C@](COc3cnccn3)(O2)[C@@H]1O` [A269], the Kd (Table 1C, read-out: ASGPR KD) was below 10 µM.

Regarding `Cc1nnc(N2C[C@H](Oc3cccc(C(F)(F)F)n3)[C@@H](O)[C@@H](O)C2)o1` [A352], the Kd (Table 1D, read-out: ASGPR KD) is below 10 µM.

Regarding `OC[C@H]1O[C@H](c2ccccc2)[C@H](Oc2cccc(C(F)(F)F)n2)[C@@H](O)[C@H]1O` [A329], the Kd (Table 1C, read-out: ASGPR KD) is below 10 µM.

For `C[C@H]1O[C@H](c2cn(C3CCN(C(=O)OC(C)(C)C)CC3)nn2)[C@H](Oc2cccc(C(F)(F)F)n2)[C@@H](O)[C@H]1O` [A217, tert-butyl 4-(4-((2R,3R,4S,5R,6R)-4,5-dihydroxy-6-methyl-3-((6-(trifluoromethyl)pyridin-2-yl)oxy)tetrahydro-2H-pyran-2-yl)-1H-1,2,3-triazol-1-yl)piperidine-1-carboxylate], the Kd (Table 1C, read-out: ASGPR KD) is below 10 µM.

As for `CC(C)(C)OC(=O)N1CCC(Cc2ccc(OC[C@H]3OC[C@H](Oc4cccc(C(F)(F)F)n4)[C@@H](O)[C@H]3O)nn2)CC1` [A280], under “Table 1C, read-out: ASGPR KD”, the Kd is below 10 µM.

On to `O[C@@H]1[C@H](O)[C@@H](Nc2cccc(C(F)(F)F)n2)CO[C@@H]1COc1cnccn1` [A239], for which, under “Table 1C, read-out: ASGPR KD”, the equilibrium dissociation constant (Kd) is below 10 µM.

For `O[C@@H]1[C@H](O)[C@@H](Oc2cccc(C(F)(F)F)n2)CO[C@@H]1COc1ncccn1` [A235, (2R,3R,4S,5S)-2-((pyrimidin-2-yloxy)methyl)-5-((6-(trifluoromethyl)pyridin-2-yl)oxy)tetrahydro-2H-pyran-3,4-diol], for the setting “Table 1C, read-out: ASGPR KD”, the Kd is below 10 µM.

Turning to `O[C@@H]1[C@H](O)[C@@H](Nc2cncc(C(F)(F)F)n2)CO[C@@H]1CNc1cccnn1` [A37, (2R,3R,4R,5S)-2-((pyridazin-3-ylamino)methyl)-5-((6-(trifluoromethyl)pyrazin-2-yl)amino)tetrahydro-2H-pyran-3,4-diol], the Kd (Table 1A, read-out: ASGPR KD) was below 10 µM.

For the molecule `O=C(OCc1ccccc1)N1C[C@H](Nc2nccc(C(F)(F)F)n2)[C@@H](O)[C@@H](O)C1` [A369], the Kd (Table 1D, read-out: ASGPR KD) is below 10 µM.

`C[C@H]1O[C@@H](c2ccc3ccccc3n2)[C@H](Oc2cccc(C(F)(F)F)n2)[C@@H](O)[C@H]1O` [A344]: the Kd (Table 1C, read-out: ASGPR KD) was below 10 µM.

On to `O=C(O)c1ccc(-c2ccc(C(=O)N3C[C@H](Nc4cncc(C(F)(F)F)n4)[C@@H](O)[C@@H](O)C3)cc2)cc1` [A383], for which the Kd (Table 1D, read-out: ASGPR KD) was below 10 µM.

For the molecule `O[C@@H]1[C@H](O)[C@@H](Nc2cncc(C(F)(F)F)n2)CO[C@@H]1CN1CCc2ccccc2C1` [A232, (2R,3R,4R,5S)-2-((3,4-dihydroisoquinolin-2(1H)-yl)methyl)-5-((6-(trifluoromethyl)pyrazin-2-yl)amino)tetrahydro-2H-pyran-3,4-diol], for the setting “Table 1C, read-out: ASGPR KD”, the equilibrium dissociation constant (Kd) was below 10 µM.

`O[C@@H]1[C@H](O)[C@@H](Oc2cccc(C(F)(F)F)n2)CO[C@@H]1COc1ccc(Br)c(F)c1` [A198, (2R,3R,4S,5S)-2-((4-bromo-3-fluorophenoxy)methyl)-5-((6-(trifluoromethyl)pyridin-2-yl)oxy)tetrahydro-2H-pyran-3,4-diol]: the Kd (Table 1C, read-out: ASGPR KD) is below 10 µM.

Take `O=C(NC[C@H]1OC[C@H](Nc2cncc(C(F)(F)F)n2)[C@@H](O)[C@H]1O)c1ccc2c(n1)CCCN2` [A88, N-(((2R,3R,4R,5S)-3,4-dihydroxy-5-((6-(trifluoromethyl)pyrazin-2-yl)amino)tetrahydro-2H-pyran-2-yl)methyl)-5,6,7,8-tetrahydro-1,5-naphthyridine-2-carboxamide]: the Kd (Table 1A, read-out: ASGPR KD) is below 10 µM.

As for `O=C(O)CN1CCC(N2CCN(C[C@H]3OC[C@H](Nc4cncc(C(F)(F)F)n4)[C@@H](O)[C@H]3O)CC2)CC1` [A206, 2-(4-(4-(((2R,3R,4R,5S)-3,4-dihydroxy-5-((6-(trifluoromethyl)pyrazin-2-yl)amino)tetrahydro-2H-pyran-2-yl)methyl)piperazin-1-yl)piperidin-1-yl)acetic acid], the Kd (Table 1C, read-out: ASGPR KD) is below 10 µM.

Turning to `O=C(OCc1ccccc1)N1CC(c2ccc(OC[C@H]3OC[C@H](Nc4cncc(C(F)(F)F)n4)[C@@H](O)[C@H]3O)nn2)C1` [A410], the dissociation constant Kd (Table 1D, read-out: ASGPR KD) is below 10 µM.

With `O=C(NC[C@H]1OC[C@H](Nc2cncc(C(F)(F)F)n2)[C@@H](O)[C@H]1O)c1cc(F)ccn1` [A39, N-(((2R,3R,4R,5S)-3,4-dihydroxy-5-((6-(trifluoromethyl)pyrazin-2-yl)amino)tetrahydro-2H-pyran-2-yl)methyl)-4-fluoropicolinamide], the Kd (Table 1A, read-out: ASGPR KD) is below 10 µM.

As for `CC(=O)N1C[C@H](Nc2cncc(C(F)(F)F)n2)[C@@H](O)[C@@H](O)C1` [A102, 1-((3S,4R,5S)-3,4-dihydroxy-5-((6-(trifluoromethyl)pyrazin-2-yl)amino)piperidin-1-yl)ethan-1-one], where the note is “Table 1A, read-out: ASGPR KD”, the Kd is below 10 µM.

Turning to `C[C@H]1O[C@H](C2=CC3C4CCC(C4)C3C2=O)[C@H](Oc2cccc(C(F)(F)F)n2)[C@@H](O)[C@H]1O` (stereo partly shown) [A435], the Kd (Table 1E, read-out: ASGPR KD) is below 10 µM.

`O[C@@H]1[C@H](O)[C@@H](Oc2cccc(C(F)(F)F)n2)CO[C@@H]1CN1CCc2ccccc2C1` [A254]: where the note is “Table 1C, read-out: ASGPR KD”, the Kd was below 10 µM.

Consider `O=C(NC[C@H]1OC[C@H](Nc2cncc(C(F)(F)F)n2)[C@@H](O)[C@H]1O)c1ccc2ncncc2c1` [A17, N-(((2R,3R,4R,5S)-3,4-dihydroxy-5-((6-(trifluoromethyl)pyrazin-2-yl)amino)tetrahydro-2H-pyran-2-yl)methyl)quinazoline-6-carboxamide], for which the Kd (Table 1A, read-out: ASGPR KD) was below 10 µM.

`O=C1CCCN1C[C@H]1OC[C@H](Nc2cccc(C(F)(F)F)n2)[C@@H](O)[C@H]1O` [A285]: under “Table 1C, read-out: ASGPR KD”, the Kd is below 10 µM.

`O=C(c1ccc(Cc2ccccc2)cc1)N1C[C@H](Nc2cncc(C(F)(F)F)n2)[C@@H](O)[C@@H](O)C1` [A148, (4-benzylphenyl)((3S,4R,5S)-3,4-dihydroxy-5-((6-(trifluoromethyl)pyrazin-2-yl)amino)piperidin-1-yl)methanone]: the Kd (Table 1B, read-out: ASGPR Kd) was below 10 µM.

`O[C@@H]1[C@H](O)[C@@H](Nc2cncc(C(F)(F)F)n2)CO[C@@H]1c1cn(C2CCNCC2)nn1` [A200, (2R,3R,4R,5S)-2-(1-(piperidin-4-yl)-1H-1,2,3-triazol-4-yl)-5-((6-(trifluoromethyl)pyrazin-2-yl)amino)tetrahydro-2H-pyran-3,4-diol]: the Kd (Table 1C, read-out: ASGPR KD) is below 10 µM.

For `NCCCCCC(=O)NC(COCCC(=O)NCCOCCOCCOCCOC[C@H]1OC[C@H](Nc2nccc(C(F)(F)F)n2)[C@@H](O)[C@H]1O)COCCC(=O)NCCOCCOCCOCCOC[C@H]1OC[C@H](Nc2nccc(C(F)(F)F)n2)[C@@H](O)[C@H]1O` [A45, 3,3′-((2-(6-aminohexanamido)propane-1,3-diyl)bis(oxy))bis(N-(1-((2R,3R,4R,5S)-3,4-dihydroxy-5-((4-(trifluoromethyl)pyrimidin-2-yl)amino)tetrahydro-2H-pyran-2-yl)-2,5,8,11-tetraoxatridecan-13-yl)propanamide)], where the note is “Table 1A, read-out: ASGPR KD”, the Kd is below 10 µM.

As for `O[C@@H]1[C@@H](Nc2cncc(C(F)(F)F)n2)CN(c2ccccc2)C[C@@H]1O` [A393], where the note is “Table 1D, read-out: ASGPR KD”, the Kd was below 10 µM.

`O[C@@H]1[C@H](O)[C@@H](Nc2cncc(C(F)(F)F)n2)CO[C@@H]1c1cn(-c2ccccc2)nn1` [A201, (2R,3R,4R,5S)-2-(1-phenyl-1H-1,2,3-triazol-4-yl)-5-((6-(trifluoromethyl)pyrazin-2-yl)amino)tetrahydro-2H-pyran-3,4-diol]: the dissociation constant (Kd) (Table 1C, read-out: ASGPR KD) is below 10 µM.

As for `OC[C@H]1O[C@H](c2ccc(N3CCNCC3)cc2)[C@H](Oc2cccc(C(F)(F)F)n2)[C@@H](O)[C@H]1O` [A250], the Kd (Table 1C, read-out: ASGPR KD) is below 10 µM.

In the case of `C[C@H]1O[C@H](COc2ccc(C(=O)O)nn2)[C@H](Oc2cccc(C(F)(F)F)n2)[C@@H](O)[C@H]1O` [A444], the dissociation constant (Kd) (Table 1E, read-out: ASGPR KD) is below 10 µM.

As to `O=C1c2ccccc2CN1C[C@H]1OC[C@H](Nc2cncc(C(F)(F)F)n2)[C@@H](O)[C@H]1O` [A152, 2-(((2R,3R,4R,5S)-3,4-dihydroxy-5-((6-(trifluoromethyl)pyrazin-2-yl)amino)tetrahydro-2H-pyran-2-yl)methyl) isoindolin-1-one], the Kd (Table 1B, read-out: ASGPR Kd) was below 10 µM.

On to `C[C@H]1O[C@H](c2nc(-c3ccccc3)no2)[C@H](Oc2cccc(C(F)(F)F)n2)[C@@H](O)[C@H]1O` [A451], for which the Kd (Table 1E, read-out: ASGPR KD) is below 10 µM.

In the case of `O[C@@H]1[C@H](O)[C@@H](Nc2cccc(C(F)(F)F)n2)CO[C@@H]1CN1CCc2ccccc2C1` [A268], the dissociation constant (Kd) (Table 1C, read-out: ASGPR KD) is below 10 µM.

On to `O=C(NC[C@H]1OC[C@H](Nc2cncc(C(F)(F)F)n2)[C@@H](O)[C@H]1O)c1ccc(-c2ccccc2)cc1` [A10, N-(((2R,3R,4R,5S)-3,4-dihydroxy-5-((6-(trifluoromethyl)pyrazin-2-yl)amino)tetrahydro-2H-pyran-2-yl)methyl)-[1,1′-biphenyl]-4-carboxamide], for which the Kd (Table 1A, read-out: ASGPR KD) is below 10 µM.
